Test results published in US20200290950A1, “ALKAMIDE COMPOUNDS AND USES THEREOF” (NORTH CAROLINA STATE UNIVERSITY, priority 2017, published 2020).

How the values were obtained:
RBL-2H3 cells = assay: Histamine release, competitive EIA; type: cell-based, rat; conditions: RBL-2H3 cells treated with A23187, 1 hr
Procedure: FIGS. 1A-1F. A15 inhibits BMMC and RBL-2H3 cell degranulation. The structure of alkamide A15 is shown with different functional groups and carbons in the fatty acid chain labeled (FIG. 1A). BMMCs were plated and stimulated 4 hrs later with 1 μM A23187 and the indicated concentrations of A15 or vehicle only. The percent degranulation was measured after 1 hr (FIG. 1B). RBL-2H3 cells were treated with A23187 and the percent degranulation was determined 1 hr later (FIG. 1C) or every 10 min over a 1 hr time course (FIG. 1D). RBL-2H3 cells were plated and incubated for 4 hrs before the media was aspirated and replaced with media containing 1 μg/mL IgE anti-DNP. Cells were incubated overnight and washed prior to stimulation. The percent degranulation from RBL-2H3 cells was calculated after stimulation with 50 ng/mL DNP-HSA in combination with the indicated concentrations of A15 or vehicle only after 1 hr (FIG. 1E). RBL-2H3 cells were stimulated for 1 hr in Tyrode's buffer before supernatants were collected and levels of histamine were measured using a competitive inhibition EIA kit (FIG. 1F). Data shown are the means±SEM from 3-4 independent experiments (FIG. 1B, FIG. 1C and FIG. 1F) or the means±SEM of triplicate wells from a representative experiment from 3 independent experiments (FIG. 1D and FIG. 1E). […]

TRPA1 = molecular target: T1, TRPA1 (Mus musculus, UniProt Q8BLA8); assay: Calcium response of DRG neurons to mustard (allyl isothiocyanate); type: cell-based; conditions: cultured DRG neurons, fluorescence microscopy
T1 construct: The receptors TRPA1 and TRPV1 are expressed on neurons; from tissue; host or cells: primary dorsal root ganglion neurons from mice
T1 sequence (Q8BLA8 whole entry): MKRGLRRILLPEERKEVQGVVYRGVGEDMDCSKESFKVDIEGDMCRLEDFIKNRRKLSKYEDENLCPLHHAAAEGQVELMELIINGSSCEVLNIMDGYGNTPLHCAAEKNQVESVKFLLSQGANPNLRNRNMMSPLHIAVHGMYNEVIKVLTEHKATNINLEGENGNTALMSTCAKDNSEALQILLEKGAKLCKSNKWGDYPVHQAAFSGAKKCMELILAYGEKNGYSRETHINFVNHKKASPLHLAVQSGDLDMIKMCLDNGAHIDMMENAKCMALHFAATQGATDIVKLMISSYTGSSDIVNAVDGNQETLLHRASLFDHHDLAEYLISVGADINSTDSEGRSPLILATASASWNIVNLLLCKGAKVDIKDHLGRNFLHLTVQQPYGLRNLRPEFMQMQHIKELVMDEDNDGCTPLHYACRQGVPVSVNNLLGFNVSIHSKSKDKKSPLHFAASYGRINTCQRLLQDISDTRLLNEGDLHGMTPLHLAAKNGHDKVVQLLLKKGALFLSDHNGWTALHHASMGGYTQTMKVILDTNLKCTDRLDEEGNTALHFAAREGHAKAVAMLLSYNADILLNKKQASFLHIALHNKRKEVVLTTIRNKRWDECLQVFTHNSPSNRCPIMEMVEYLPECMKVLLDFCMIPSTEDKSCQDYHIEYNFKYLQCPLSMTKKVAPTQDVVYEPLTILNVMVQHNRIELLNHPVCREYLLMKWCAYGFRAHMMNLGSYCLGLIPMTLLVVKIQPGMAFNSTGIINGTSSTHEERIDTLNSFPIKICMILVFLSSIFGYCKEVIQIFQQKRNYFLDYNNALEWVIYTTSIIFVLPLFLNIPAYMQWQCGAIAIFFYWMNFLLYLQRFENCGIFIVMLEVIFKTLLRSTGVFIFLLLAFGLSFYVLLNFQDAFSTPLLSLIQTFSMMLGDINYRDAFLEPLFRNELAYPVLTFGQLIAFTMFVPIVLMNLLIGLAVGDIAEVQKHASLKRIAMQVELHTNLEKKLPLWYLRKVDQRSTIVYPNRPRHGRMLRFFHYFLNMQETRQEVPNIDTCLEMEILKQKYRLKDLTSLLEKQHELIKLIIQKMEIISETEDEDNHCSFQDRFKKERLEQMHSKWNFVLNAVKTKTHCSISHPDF
From the text: FIG. 11. Calcium response from DRG sensory neurons to alkamide of transient receptors. Mustard a TRPA1-receptor agonist activates DRG neurons in gray (A) and capsaicin, an agonist for TRPV1-receptors in the DRG neurons in red (B). Ligand A15 inhibits both TRPA1 and TRPV1 receptors activation in orange; however, 85Y a synthetic ligand only reduces the inhibition of TRPA1 but not TRPV1 receptors in blue. Total number of neurons (n)=135-145; p≤0.05.
Several different model systems were utilized for these experiments. In one model, dorsal root ganglia were obtained from mice and the neurons cultured in vitro. The neurons were then stimulated in the presence/absence of A15 and YM8-85 and the calcium responses monitored by fluorescence microscopy. In the second model, the alkamides were applied to mouse skin in mineral oil. The reactions of these mice to heat, cold, and tactile stimulation was then compared with mice that had not received treatment with A15. […] Alkamides were applied to sensitized animals and then ear swelling and bouts of scratching were monitored.
In vitro DRG neuron responses. […] Neurons were stimulated with mustard (allyl isothiocyanate) (A) an agonist for the receptor TRPA-1 or capsaicin (B) an agonist for the receptor TRPV-1 and calcium responses were measured in individual neurons by fluorescence microscopy. […]

With CCCCCCC/C=C/C=C/C(=O)NCC(C)C [A15, (2E,4E)-N-Isobutyldodeca-2,4-dienamide] the release of histamine (RBL-2H3 cells) was “inhibited the release of the vasoactive amine histamine” and the “DRG neuron calcium response to mustard (TRPA1 agonist)” value (TRPA1) was “inhibit”.
